Results taken from paper PMC6522941, “Design, synthesis, and anticancer evaluation of novel quinoline derivatives of ursolic acid with hydrazide, oxadiazole, and thiadiazole moieties as potent MEK inhibitors” (Journal of Enzyme Inhibition and Medicinal Chemistry, 2019).

Assays:
QSG-7701 cells = assay: MTT cytotoxic assay, normal hepatocyte QSG-7701; type: cell-based, human; settings: for IC50: Homo sapiens, QSG7701, MTT, normal hepatocyte cell line; for Selectivity: IC50 (QSG-7701)/IC50 (HeLa)
Method: (§1) Human breast cancer cell line (MDA-MB-231), cervical carcinoma cell line (HeLa), the liver cancer cell line (SMMC-7721) and normal hepatocyte cell line (QSG-7701) were maintained in Dulbecco Modified Eagle Medium (DMEM) containing 4.0 mM L-Glutamine and 4500 mg/L Glucose supplemented with 10% (v/v) foetal bovine serum (FBS) and 100 U/mL penicillin/streptomycin at 37 °C in humidified atmosphere of 5% CO2 and 95% air.
(§2) Exponentially growing MDA-MB-231, Hela and SMMC-7721 cell lines were seeded into 96-well plate for 100 μL and treated with different concentrations of the synthetic compounds for 72 h, and then 10 μL of MTT (10 mg/mL) was added and incubation for 3 ∼ 4 h at 37 °C. The generated purple formazan crystals from viable can be dissolved by adding 100 μL DMSO. The plates were swirled gently for 5 min and quantified by measuring the OD of the plates at the wavelength of 540 nm. Each concentration was repeated in three wells and the same experimental condition was provided for all compounds. The results were expressed as IC50 values with standard deviations, which was defined as the concentration at which 50% survival of cells was discerned. Etoposide was co-assayed as positive control.
(§3) The in vitro cytotoxic activity of derivatives 3a–d, 4a–h, 5a–h, and 6a–h were evaluated by MTT assay against human breast cancer cell line (MDA-MB-231), cervical carcinoma cell line (HeLa), hepatocarcinoma cell line (SMMC-7721) and human normal hepatocyte cell line (QSG-7701). The anticancer drug etoposide was co-assayed as the positive control. All tested compounds were dissolved in DMSO and the stock solutions were diluted by DMEM medium before treatment of the cultured cells.

MEK1 = molecular target: T1, MEK1 (Homo sapiens, UniProt Q02750); assay: In vitro MEK1 kinase assay (ADP-Glo); type: biochemical; settings: recombinant GST-MEK1, GST-ERK2 (inactive) substrate, 10 μM ATP
T1 construct: purchased Carna Biosciences, Kobe, Japan
T1 sequence (Q02750 whole entry): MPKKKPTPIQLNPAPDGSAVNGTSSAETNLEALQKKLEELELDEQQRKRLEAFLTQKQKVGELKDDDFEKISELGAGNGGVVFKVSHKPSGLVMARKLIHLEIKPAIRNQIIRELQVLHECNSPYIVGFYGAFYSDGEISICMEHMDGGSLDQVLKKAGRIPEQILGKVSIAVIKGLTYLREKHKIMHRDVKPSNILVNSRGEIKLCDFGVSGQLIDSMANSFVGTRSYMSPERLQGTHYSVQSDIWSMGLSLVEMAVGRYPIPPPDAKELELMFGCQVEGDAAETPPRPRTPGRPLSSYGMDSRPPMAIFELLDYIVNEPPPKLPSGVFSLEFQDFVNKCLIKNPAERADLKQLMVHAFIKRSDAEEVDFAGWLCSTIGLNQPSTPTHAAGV
Method: An in vitro kinase assay of MEK1 was performed using ADP-Glo kinase assay (Promega, Madison, WI, USA) according to the manufacturer’s protocol. […] Reactions were stopped by adding 5 μL of ADP-Glo reagent to each well. After incubating at 22 °C for 40 min, 10 μL of the kinase detection reagent was added and the plates were incubated for another 30 min at 22 °C in the dark. The reaction mixture was analysed by EnSpire (PerkinElmer, Waltham, MA, USA).
The Raf/MEK/ERK pathway is the downstream of Ras activation, and the abnormal expression or phosphorylation of the associated proteins is essential for cancer cell proliferation. In this pathway, MEK kinase is an important anticancer target because of its key roles in regulating the cancer cell apoptosis and oncogenic transformation[51]^,[52]. Among MEK proteins, MEK1 and MEK2 are known as substrate-specific kinases which phosphorylate their downstream kinase ERK1/2.

SMMC-7721 cells = assay: MTT cytotoxic assay, SMMC-7721; type: cell-based; settings: Homo sapiens, 72 h
Method: as §1, §2, §3

MDA-MB-231 cells = assay: MTT cytotoxic assay, MDA-MB-231; type: cell-based, human
Method: as §1, §2, §3

HeLa cells = assay: MTT cytotoxic assay, HeLa; type: cell-based; settings: Homo sapiens, 72 h
Method: as §1, §2, §3

| Compound | IC50 (MEK1) | IC50 (QSG-7701 cells) | Selectivity (QSG-7701 cells) | IC50 (SMMC-7721 cells) | IC50 (MDA-MB-231 cells; Homo sapiens, MDA-MB-231, 72 h) | IC50 (HeLa cells) | IC50 (MDA-MB-231 cells; 72 h) |
| --- | --- | --- | --- | --- | --- | --- | --- |
| CC(=O)NNC(=O)[C@]12CC[C@@H](C)[C@H](C)C1C1=CCC3[C@@]4(C)Cc5cc6ccccc6nc5C(C)(C)C4CC[C@@]3(C)[C@]1(C)CC2 (stereo partly shown) [Compound 4a, N-[ursa-12-en-(2,3)-quinoline-28-oyl]-acetohydrazide] | 37.3 µM | 40.6 ± 2.89 µM | 34.4 | 17.48 ± 0.1 µM | 1.84 ± 0.13 µM | 1.18 ± 0.03 µM | – |
| Cc1nnc([C@]23CC[C@@H](C)[C@H](C)C2C2=CCC4[C@@]5(C)Cc6cc7ccccc7nc6C(C)(C)C5CC[C@@]4(C)[C@]2(C)CC3)o1 (stereo partly shown) [Compound 5a, N-2-[ursa-12-en-(2,3)-quinoline-28-oyl]-5-methyl-1,3,4-oxadiazole] | > 50 µM | > 50 µM | 4.3 | > 50 µM | < 10 µM | 19.4 ± 0.7 µM | 5.32 ± 0.13 µM |

Continued, in another order:

| IC50 (MEK1) | Compound | IC50 (QSG-7701 cells) | Selectivity (QSG-7701 cells) | IC50 (SMMC-7721 cells) | IC50 (MDA-MB-231 cells; Homo sapiens, MDA-MB-231, 72 h) | IC50 (HeLa cells) | IC50 (MDA-MB-231 cells; 72 h) |
| --- | --- | --- | --- | --- | --- | --- | --- |
| 10.9 µM | COc1ccc2nc3c(cc2c1)CC1(C)C(CCC2(C)C1CC=C1C4C(C)C(C)CCC4(C(=O)NNC(C)=O)CCC12C)C3(C)C (stereo not shown) [Compound 4b, N-[5′-methoxy-ursa-12-en-(2,3)-quinoline-28-oyl]-acetohydrazide] | 45.2 ± 2.82 µM | 54.5 | 17.65 ± 0.11 µM | 1.42 ± 0.14 µM | 0.83 ± 0.09 µM | – |
| 0.072 µM | CC(=O)NNC(=O)[C@]12CC[C@@H](C)[C@H](C)C1C1=CCC3[C@@]4(C)Cc5cc6cc(F)ccc6nc5C(C)(C)C4CC[C@@]3(C)[C@]1(C)CC2 (stereo partly shown) [Compound 4c, N-[5′-fluoro-ursa-12-en-(2,3)-quinoline-28-oyl]-acetohydrazide] | > 50 µM | 63.8 | 19.41 ± 0.12 µM | 1.16 ± 0.06 µM | 0.99 ± 0.05 µM | – |
| > 50 µM | Cc1nnc([C@]23CC[C@@H](C)[C@H](C)C2C2=CCC4[C@@]5(C)Cc6cc7cc(Cl)ccc7nc6C(C)(C)C5CC[C@@]4(C)[C@]2(C)CC3)s1 (stereo partly shown) [Compound 6d] | > 50 µM | 5.7 | > 50 µM | 15.8 ± 1.32 µM | 10.9 ± 1.07 µM | – |
